Data reported in patent US20220363662A1, “COMPOUNDS AS LXR AGONISTS” (Integral Biosciences Privated Limited, priority 2021, published 2022).

How the values were obtained:
A549 = assay: Cell viability assay (resazurin) in A549; assay type: cell-based; conditions: Homo sapiens, 96 hr exposure
How it was run: (§1)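 Cells in 10% FBS medium (DMEM; MEM for U87MG) exposed 96 h at 37 °C to serially diluted compound, then 4 h with resazurin (1 mM in medium). Fluorescence (ex 535/em 590 nm) background-subtracted, normalised to DMSO; IC50 by four-parameter variable-slope fit.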

MDA-MB-231 = assay: Cell viability assay (resazurin) in MDA-MB-231; assay type: cell-based; conditions: Homo sapiens, 96 hr exposure, read-out: MDA_MB-231 Cell IC50
How it was run: as §1

LXR beta = biological target: T1, LXR beta (Homo sapiens, UniProt P55055); assay: LXR beta agonist assay (Lanthascreen TR-FRET); assay type: biochemical; conditions: LXR beta-LBD 5 nM, read-out: LXR-β EC50
T1 construct: 5 μL of 4×LXR beta-LBD was added to each well (final concentration 5 nM); purchased Thermofisher PV4658
T1 sequence (P55055 222-460 limits assumed): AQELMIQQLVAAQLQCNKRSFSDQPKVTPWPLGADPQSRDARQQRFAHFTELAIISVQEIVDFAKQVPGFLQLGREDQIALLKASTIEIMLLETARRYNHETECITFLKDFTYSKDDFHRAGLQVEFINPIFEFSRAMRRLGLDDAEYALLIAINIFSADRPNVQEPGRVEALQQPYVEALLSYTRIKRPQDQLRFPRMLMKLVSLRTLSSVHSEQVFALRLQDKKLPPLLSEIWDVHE
How it was run: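 TR-FRET coactivator recruitment: 5 nM LXR beta-LBD with 100 nM Fl-D22 peptide and 10 nM Tb-anti-GST antibody (final) in Coregulator Buffer G, 60 min at 22° C, read hourly up to 4 hours. Duplicate three-fold titrations from 30 μM; EC50 by variable-slope nonlinear regression.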

MCF7 = assay: Cell viability assay (resazurin) in MCF7; assay type: cell-based; conditions: Homo sapiens, 96 hr exposure
Description: HepG2 (ATCC® HB-8065™), hepatocellular carcinoma, A549 (ATCC® CCL-185™), lung epithelial carcinoma, MCF7 (ATCC® HTB-22™), mammary gland epithelial carcinoma, MDA-MB-231 (ATCC® HTB-26™), TNBC, MiaPaCa-2 (ATCC® CRL-1420™) & Panc-1 (ATCC® CRL-1469™), pancreatic epithelial carcinoma, HCT116 (ATCC® CCL-247™), colon epithelial carcinoma and U87MG (ATCC® HTB-14™), brain epithelial carcinoma cell lines respectively were seeded in the respective medium (DMEM, Cat #10569044 with 10% FBS, Cat #16000044; Gibco for HepG2, A549, MCF7, MDA-MB-231, MiaPaCa-2, Panc-1, HCT116 and MEM, Cat #11095080 with 10% FBS for U87MG). Cells were allowed to grow at 37° C. for 24 hr in 5% CO2 (culture conditions) in a Nuaire incubator (humidified). Serially diluted compounds (100 μl) were added to the culture plate 24 hr later and the cultures were further incubated in culture conditions for 96 hr. Experiment was terminated at the completion of 96 hr exposure to the drug by replacing the medium with 100 μl of 1 mM of resazurin (R7017; Sigma) prepared in culture medium and the plates were further incubated in culture conditions for 4 hr. Fluorescence was then measured using a multimodal plate reader (Biotek Synergy Neo) at an excitation wavelength of 535 nm and emission wavelength of 590 nm to obtain relative fluorescence units. Data analysis was done by subtracting the background fluorescence (only medium blank) value from each reading and then normalizing with the vehicle control (DMSO treated cells) to obtain percent survival/proliferation. Percent survival at different doses was used to calculate IC50 by fitting the curve to the “four-parameter variable slope logistic model” using Prism Graph Pad.

MiaPaCa-2 = assay: Cell viability assay (resazurin) in MiaPaCa-2; assay type: cell-based; conditions: Homo sapiens, MIA PaCa-2; 96 hr exposure
Description: (§2) HepG2 (ATCC® HB-8065™), hepatocellular carcinoma, A549 (ATCC® CCL-185™), lung epithelial carcinoma, MCF7 (ATCC® HTB-22™), mammary gland epithelial carcinoma, MDA-MB-231 (ATCC® HTB-26™), TNBC, MiaPaCa-2 (ATCC® CRL-1420™) & Panc-1 (ATCC® CRL-1469™), pancreatic epithelial carcinoma, HCT116 (ATCC® CCL-247™), colon epithelial carcinoma and U87MG (ATCC® HTB-14™), brain epithelial carcinoma cell lines respectively were seeded in the respective medium (DMEM, Cat #10569044 with 10% FBS, Cat #16000044; Gibco for HepG2, A549, MCF7, MDA-MB-231, MiaPaCa-2, Panc-1, HCT116 and MEM, Cat #11095080 with 10% FBS for U87MG). Cells were allowed to grow at 37° C. for 24 hr in 5% CO2 (culture conditions) in a Nuaire incubator (humidified). Serially diluted compounds (100 μl) were added to the culture plate 24 hr later and the cultures were further incubated in culture conditions for 96 hr. […] Fluorescence was then measured using a multimodal plate reader (Biotek Synergy Neo) at an excitation wavelength of 535 nm and emission wavelength of 590 nm to obtain relative fluorescence units. Data analysis was done by subtracting the background fluorescence (only medium blank) value from each reading and then normalizing with the vehicle control (DMSO treated cells) to obtain percent survival/proliferation. […]

U87MG = assay: Cell viability assay (resazurin) in U87MG; assay type: cell-based; conditions: Homo sapiens, U-87 MG; 96 hr exposure
Description: as §2

HepG2 = assay: Cell viability assay (resazurin) in HepG2; assay type: cell-based; conditions: Homo sapiens, 96 hr exposure
How it was run: as §1

mouse splenocytes [1] = assay: Mouse splenocyte assay, cytokine release (mIFN-γ ELISA); assay type: cell-based; conditions: Balb/c splenocytes, CD3e/CD28 and PMA+Ionomycin induced, read-out: Enhancement of mIFN-γ release by activated Mouse Splenocyte, EC50
Description: EC50 values of compounds for enhancement of CD3e/CD28 induced mIFNγ release in mouse splenocytes isolated from Balb/c mice and differentiated (Treg) with PMA+Ionomycin. Mouse splenocytes (2*10^5 cells/well) were activated with Anti-mouse CD3e (0.5 μg/mL, coated overnight at 4° C.; Cat #14-0032-82, eBioscience) and then incubated with Anti-mouse CD28 (1 μg/mL soluble; Cat #16-0289-81, eBiosciences). After 48 hr of incubation serial dilutions of compounds (3 fold, 8 point dose response starting at 1 μM) were left for 6-8 hrs at cell culture conditions and then splenocytes were further incubated with PMA (50 ng/mL final concentration) and 1 μg/mL of Ionomycin (final concentration) and incubated under cell culture conditions overnight after which the supernatant was harvested, diluted to 1:50 and ELISA was performed as per the manufacturer's protocol (mIFN-γ kit; Cat #555138 & 550534, BD Biosciences). Plates were read in Biotek plate reader by measuring absorbance at 450 nm.

mouse splenocytes [2] = assay: Mouse splenocytes cytotoxicity assay (CTG); assay type: cell-based; conditions: Splenocyte, CD3e/CD28 activated Balb/c splenocytes, 72 hr
Description: IC50 values to look at cytotoxicity of compounds on CD3e/CD28 induced splenocytes, was determined in mouse splenocytes isolated from Balb/c mice. Mouse splenocytes (2.5×10^5 cells/well/160 μl) were activated with Anti-mouse CD3e (0.5 μg/mL, coated overnight at 4° C.; Cat #14-0032-82, eBiosciences) and then incubated with serial dilutions of compounds (3 fold, 8 point dose response starting at 30 μM) and treated with Anti-mouse CD28 (1 μg/mL soluble; Cat #16-0289-81, eBiosciences). Splenocytes were further incubated under cell culture conditions for 72 hr after which assay was terminated by addition of CTG. Plate was incubated for 15 min at 37° C., 5% CO2 and luminescence was measured.

Row | SMILES | IC50 (A549) [µM] | IC50 (MDA-MB-231) [µM] | EC50 (LXR beta) [µM] | IC50 (MCF7) [µM] | IC50 (MiaPaCa-2) [µM] | IC50 (U87MG) [µM] | IC50 (HepG2) [µM] | EC50 (mouse splenocytes [1]) [µM] | IC50 (mouse splenocytes [2]) [µM]
1 | CN(C)C(=O)c1ccc(NC2CN(C3CCN(C(=O)C(O)(c4ccccc4)C(F)(F)F)CC3)C2)cc1Cl (stereo not shown) [Compound 1.3, 2-chloro-N,N-dimethyl-4-(1-(1-(3,3,3-trifluoro-2-hydroxy-2-phenylpropanoyl)piperidin-4-yl)azetidin-3-ylamino)benzamide] | > 30 | > 30 | 1.12 | > 25.7 | > 30 | > 30 | 13.8 |  | 
2 | CN(C)C(=O)c1ccc(N2CCN(C3CC4(C3)CN(C(=O)C(O)(c3ccccc3)C(F)(F)F)C4)CC2)cc1Cl (stereo not shown) [Compound 1.4, 2-chloro-N,N-dimethyl-4-(4-(2-(3,3,3-trifluoro-2-hydroxy-2-phenylpropanoyl)-2-azaspiro[3.3]heptan-6-yl)piperazin-1-yl)benzamide] | > 30 | > 30 | 0.45 | > 30 | > 30 | > 30 | > 30 |  | 
3 | O=c1[nH]ccc2cc(N3CCC(C4CCN(S(=O)(=O)c5ccccc5C(F)(F)F)CC4)CC3)cc(Cl)c12 [Compound 1.14, 8-chloro-6-(1′-(2-(trifluoromethyl)phenylsulfonyl)-4,4′-bipiperidin-1-yl)isoquinolin-1(2H)-one] |  |  | 2.51 |  |  |  |  | 0.05 | 22.9
4 | CC(C)(C(=O)N1CCC(N2CCN(c3cc(Cl)c4c(=O)[nH]ccc4c3)CC2)CC1)C(F)(F)F [Compound 1.21, 8-chloro-6-(4-(1-(3,3,3-trifluoro-2,2-dimethylpropanoyl)piperidin-4-yl)piperazin-1-yl)isoquinolin-1(2H)-one] |  |  |  |  |  |  |  | 0.111 | > 30
